Measurements as given in patent US7632863B2, “3,4,5,4′-tetramethoxyl-α,β-diphenylethane-3′-O-sodium sulphate and its use” (The Jian Cell Biomedical Research Co., Ltd., priority 2007, dated 2009).

Experiments:
S180 sarcoma = conditions: Dosage 30 mg/kg, i.v., S180 sarcoma-bearing mice
Description: (1) Sample: 3,4,5,4′-tetramethoxyl-α,β-diphenylethane-3′-O-sodium sulphate (AS) provided by Zhejiang Cell Biomedical Research Co., Ltd., and prepared by the process in Example One. Dissolved by physiological saline for the concentration needed.
(2) Cisplatin: Cisplatin for injection (DDP), Qilu Pharmaceutical Co., Ltd. Batch No.: 5120282DC. Dissolved by physiological saline for preparation.
(3) Control product: Cyclophosphamide for injection (CTX), Jiangsu Hengrui Pharmaceutical Inc. Co. Batch No.: 04123021 Dissolved by physiological saline for preparation.
(1) KM mouse bearing S180 sarcoma.
(2) 70 KM mice, female, weighting 18-22 g, provided by Zhejing College of Traditional Chinese Medicine.
(1) Drawing ascites under aseptic condition from mouse bearing S180 sarcoma, diluting with physiologic saline 1:3, giving subcutaneous inoculation in the armpit of the right forelimb of the KM mice with 0.2 ml each; dividing the mice into 7 groups randomly the next day, 10 in each group.
(2) Administering drug to the mice by weight the third day of inoculation, intravenous administration 0.5 ml/20 g […], by weight, and putting them to death on the 11th day after inoculation, weighing the tumor and calculating the rate of tumor inhibition.
(3) dosage (mg/kg/d) and means of administration:
AS: 50 mg/kg, tail vein injection
AS: 100 mg/kg, tail vein injection
AS: 200 mg/kg, tail vein injection
DDP: 1 mg/kg, tail vein injection
AS+DDP: 50 mg/kg+1 mg/kg, tail vein injection
CTX: 30 mg/kg, tail vein injection
Setting up another blank control group, tail vein injection of 0.9% NaCl 0.5 ml.
(§1) (4) Judging the result with the following formula: […]

Lewis lung cancer = test: Joint administration of AS and DDP, murine model of Lewis lung cancer (Example Five); format: in vivo, C57BL/6J mice; conditions: Dosage 1 mg/kg, i.v., mice bearing Lewis lung cancer
Description: (1) Sample: 3,4,5,4′-tetramethoxyl-α,β-diphenylethane-3′-O-sodium sulphate (AS), raw material medicine, provided by Zhejiang Cell Biomedical Research Co., Ltd., and prepared by the process in Example One. Batch No.: 061025. Dissolved by physiological saline for the concentration needed.
(2) Cisplatin: Cisplatin for injection (DDP), Qilu Pharmaceutical Co., Ltd. Batch No.: 5120282DC; Dissolved by physiological saline for preparation
(3) Control product: Cyclophosphamide for injection (CTX), Jiangsu Hengrui Pharmaceutical Inc. Co. Batch No.: 04123021. Dissolved by physiological saline for preparation.
(1) C57BL/6J mouse bearing Lewis lung cancer
(2) 70 C57BL/6J mice, female, weighing 17-21 g. Provided by the animal house of Zhejiang Cell Biomedical Research Co., Ltd.
(1) Taking tumor from C57BL/6J mouse under aseptic condition, grinding and diluting it by physiological saline 1:3 (weight:volume), and giving hypodermic inoculation 0.2 ml per mouse in the armpit of the right forelimb of each mouse. dividing the mice into 7 groups randomly the next day, 10 in each group.
(2) After inoculation, waiting till the tumor has grown to the accessible size, administering medicine according to body weight, 0.5 ml/20 g intravenous, for 11 days, putting the mice to death on the 19th after inoculation, taking out and weighing the tumor, and calculating the tumor inhibiting rate.
as §1

**Q.** With `N.N.[Cl][Pt][Cl]` [DDP, Cisplatin, reference compound] as the compound, how does the “Tumor inhibiting rate %” value (S180 sarcoma) read?
**A.** Its value is 70%.

**Q.** What about the Tumor weight (S180 sarcoma) of the same compound?
**A.** Its Tumor weight is 0.88 ± 0.50 g.

**Q.** What about the “Tumor inhibiting rate %” value (Lewis lung cancer) of the same compound?
**A.** Its value is 46.4%.

**Q.** What about the Tumor weight (Lewis lung cancer) of the same compound?
**A.** The Tumor weight was 2.52 ± 0.80 g.
